Test: logP(acid) by reverse phase (C18) chromatography at pH 2.3
Format: physicochemical
Conditions: pH 2.3; reverse phase (C18) chromatography, pH2.3, 0.1% phosphoric acid / acetonitrile gradient 10-95%; read-out: logP (acid)

Question: With `Cc1nc(Cn2nnc(C(F)(F)C(F)(F)C(F)(F)F)n2)ccc1[N+](=O)[O-]` [SYNTHESIS EXAMPLE 86-1] as the compound, how does the chromatographic logP read?
Answer: 3.78

Question: Which chromatographic logP does the source give for `Cc1nc(Cn2cnc(C(F)(F)C(F)(F)C(F)(F)F)n2)ccc1N` [SYNTHESIS EXAMPLE 84-2] here?
Answer: 1.52

Same assay, conditions: reverse phase (C18) chromatography at pH 2.3

Question: Which “logP (acid)” value does the source give for `Cc1nc(Cn2nc(C(F)(F)C(F)(F)F)cc2C(F)(F)F)ccc1NC(=O)c1cccc(Br)c1C(=O)N[C@@H](C)CS(C)(=O)=O` [13-187] here?
Answer: logP (acid) 3.19

Question: With `CSCC(C)NC(=O)c1c(Cl)cccc1C(=O)Nc1ccc(Cn2nc(C(F)(F)C(F)F)nc2C(F)(F)C(F)F)nc1C` (stereo not shown) [14-31] as the compound, how does the “Physical property logP (acid)” value read?
Answer: logP (acid) 3.33

Question: Which “logP (acid)” value does the source give for `COc1ccc(Br)c(C(=O)Nc2ccc(Cn3nc(C(F)(F)C(F)(F)F)nc3C(F)(F)F)cc2C)c1C(=O)N[C@@H](C)CSC` [11-38] here?
Answer: logP (acid) 4.14

Question: For `Cc1cc(Cn2nc(C(F)(F)C(F)(F)F)nc2C(F)(F)F)ccc1NC(=O)c1cc(Cl)cc(Cl)c1C(=O)N[C@@H](C)C[S+](C)[O-]` (stereo partly shown) [10-11], which “logP (acid)” value is on record?
Answer: logP (acid) 3.28

Question: With `COc1ccc(Br)c(C(=O)Nc2ccc(Cn3nc(C(F)(F)F)cc3C(F)(F)F)nc2C)c1C(=O)N[C@@H](C)C[S+](C)[O-]` (stereo partly shown) [11-17] as the compound, how does the “logP (acid)” value read?
Answer: logP (acid) 2.6

Question: Which “logP (acid)” value does the source give for `Cc1cc(Cn2nc(C(F)(F)C(F)(F)F)nc2C(F)(F)F)ccc1NC(=O)c1cc(Cl)cc(Cl)c1C(=O)N[C@@H](C)CS(C)(=O)=O` [10-12] here?
Answer: logP (acid) 3.61

Question: Which “logP (acid)” value does the source give for `Cc1nc(Cn2nc(C(F)(F)F)cc2C(F)(F)F)ccc1NC(=O)c1c(Br)ccc(Cl)c1C(=O)N[C@@H](C)C[S+](C)[O-]` (stereo partly shown) [11-14] here?
Answer: logP (acid) 2.68

Question: For `CSC[C@H](C)NC(=O)c1c(I)cccc1C(=O)Nc1cnc(Cn2nc(C(F)(F)F)cc2C(F)(F)F)cc1C` [13-181], which “logP (acid)” value is on record?
Answer: logP (acid) 3.67

Question: For `Cc1cc(Cn2nc(C(F)(F)F)cc2C(F)(F)F)ccc1NC(=O)c1c(Cl)ccc(Cl)c1C(=O)N[C@@H](C)CS(C)(=O)=O` [11-23], which “logP (acid)” value is on record?
Answer: logP (acid) 3.40

Question: For `CSCC(C)NC(=O)c1c(Cl)cccc1C(=O)Nc1ccc(Cn2nc(C(F)(F)F)nc2SC(C)C)cc1C` (stereo not shown) [14-39], which “Physical property logP (acid)” value is on record?
Answer: logP (acid) 4.13

Question: For `CCSc1nc(C(F)(F)F)nn1Cc1ccc(NC(=O)c2cccc(Cl)c2C(=O)NC(C)CSC)c(C)c1` (stereo not shown) [14-38], which “Physical property logP (acid)” value is on record?
Answer: logP (acid) 4.13

Question: With `Cc1nc(Cn2nc(C(F)(F)F)cc2C(F)(F)F)ccc1NC(=O)c1c(Br)ccc(Cl)c1C(=O)N[C@@H](C)CS(C)(=O)=O` [11-15] as the compound, how does the “logP (acid)” value read?
Answer: logP (acid) 3.05

Question: For `Cc1nc(Cn2nc(C(F)(F)F)cc2C(F)(F)F)ccc1NC(=O)c1c(Cl)ccc(Cl)c1C(=O)N[C@@H](C)C[S+](C)[O-]` (stereo partly shown) [11-5], which “logP (acid)” value is on record?
Answer: logP (acid) 2.65

Question: With `CSC[C@H](C)NC(=O)c1c(Cl)ccc(Cl)c1C(=O)Nc1ccc(Cn2nc(C(F)(F)F)cc2C(F)(F)F)cc1C` [11-21] as the compound, how does the “logP (acid)” value read?
Answer: logP (acid) 3.88

Same assay, conditions: reverse phase (C18) chromatography at pH2.3, 0.1% phosphoric acid aqueous solution / acetonitrile, linear gradient 10-95%

Question: Which “logP (acid)” value does the source give for `CNC(=O)c1cc(Cl)cc(Cl)c1C(=O)Nc1cc(Cl)cc(Cn2nc(C(F)(F)F)nc2C(F)(F)F)c1` [4-1] here?
Answer: logP (acid) 3.32

Question: Which “logP (acid)” value does the source give for `CSC[C@H](C)NC(=O)c1c(Cl)cccc1C(=O)Nc1cccc(Cn2nc(C(F)(F)C(F)(F)F)nc2-c2ccc(C(F)(F)F)cc2)c1C` [4-10] here?
Answer: logP (acid) 4.44

Question: With `CSC[C@H](C)NC(=O)c1c(Cl)cccc1C(=O)Nc1cccc(Cn2nnc(-c3ccc(C(F)(F)F)cc3)n2)c1` [4-16] as the compound, how does the “logP (acid)” value read?
Answer: logP (acid) 3.86

Same assay, conditions: reverse phase (C18) chromatography at pH2.3, 0.1% phosphoric acid aqueous solution / acetonitrile, linear gradient 10-95% acetonitrile

Question: For `CSC[C@H](C)NC(=O)c1c(Br)cccc1C(=O)Nc1cc(F)c(Cn2nc(C(F)(F)F)nc2C(F)(F)F)cc1C` [7-13], which “logP (acid)” value is on record?
Answer: logP (acid) 4.07

Question: With `Cc1cc(Cn2nc(C(F)(F)F)nc2C(F)(F)F)c(F)cc1NC(=O)c1cccc(Cl)c1C(=O)N[C@@H](C)CS(C)(=O)=O` [7-9] as the compound, how does the “logP (acid)” value read?
Answer: logP (acid) 3.02

Same assay, conditions: reverse phase (C18) chromatography column, pH 2.3; reverse phase (C18) chromatography, pH2.3, 0.1% phosphoric acid / acetonitrile gradient 10-95%; read-out: logP (acid)

Question: With `Cc1nc(Cn2cnc(C(F)(F)C(F)F)n2)ccc1N` [SYNTHESIS EXAMPLE 83-2] as the compound, how does the chromatographic logP read?
Answer: 0.55

Question: Which chromatographic logP does the source give for `Cc1cc(COS(C)(=O)=O)ncc1[N+](=O)[O-]` [SYNTHESIS EXAMPLE 68-1] here?
Answer: 1.49

Same assay, conditions: reverse phase (C18) chromatography, pH 2.3

Question: Which “logP (acid)” value does the source give for `CSC[C@H](C)NC(=O)c1c(Cl)cccc1C(=O)Nc1ccc(Cn2cnc(C(F)(F)C(F)(F)C(F)(F)F)n2)nc1C` [14-310] here?
Answer: logP (acid) 3.16

Question: Which “logP (acid)” value does the source give for `CC(=O)CC(C)NC(=O)c1c(Br)cccc1C(=O)Nc1ccc(Cn2nc(C(F)(F)C(F)(F)F)nc2C(F)(F)F)cc1C` (stereo not shown) [14-296] here?
Answer: logP (acid) 3.46

Question: For `Cc1nc(Cn2nc(C(F)(F)F)cc2C(F)(F)F)ccc1NC(=O)c1c(Cl)cccc1C(=O)NC(C)CN(C)C` (stereo not shown) [13-283], which “logP (acid)” value is on record?
Answer: logP (acid) 2.4

Question: For `Cc1cc(Cn2nc(C(F)(F)F)cc2C(F)(F)F)ccc1NC(=O)c1c(Cl)cccc1C(=O)NCC#N` [13-198], which “logP (acid)” value is on record?
Answer: logP (acid) 3.32

Question: For `Cc1cc(Cn2nc(C(F)(F)C(F)(F)F)nc2C(F)(F)F)ccc1NC(=O)c1cccc(Br)c1C(=O)NC(C)CC1(C)OCCO1` (stereo not shown) [14-362], which “logP (acid)” value is on record?
Answer: logP (acid) 3.92

Question: With `Cc1cc(Cn2nc(C(F)(F)F)cc2C(F)(F)F)ccc1NC(=O)c1cccc(S(=O)(=O)N(C)C)c1C(=O)N[C@@H](C)CS(C)(=O)=O` [13-349] as the compound, how does the “logP (acid)” value read?
Answer: logP (acid) 3.07

Question: Which “logP (acid)” value does the source give for `CSC[C@H](C)NC(=O)c1c(Cl)cccc1C(=O)Nc1ccc(Cn2nc(C(F)(F)F)n(C3CC3)c2=O)nc1C` [14-323] here?
Answer: logP (acid) 2.57

Question: Which “logP (acid)” value does the source give for `CSC[C@H](C)NC(=O)c1c(Cl)cccc1C(=O)Nc1ccc(Cn2nc(C(F)(F)C(F)(F)F)n(N)c2=O)cc1C` [14-421] here?
Answer: logP (acid) 2.79

Question: With `Cc1cc(Cn2nc(C(F)(F)C(F)(F)F)nc2C(F)(F)F)ccc1NC(=O)c1cccc(I)c1C(=O)NC(C)CC1(C)OCCCO1` (stereo not shown) [14-358] as the compound, how does the “logP (acid)” value read?
Answer: logP (acid) 3.95

Question: With `CSC[C@H](C)NC(=O)c1c(Cl)cccc1C(=O)Nc1ccc(Cn2nc(C(F)(F)F)nc2NC(=O)C(F)(F)F)cc1C` [14-353] as the compound, how does the “logP (acid)” value read?
Answer: logP (acid) 3.11

Question: With `Cc1cc(Cn2nc(C(F)(F)C(F)(F)F)nc2C(F)(F)F)ccc1NC(=O)c1cccc(S(=O)(=O)N(C)C)c1C(=O)N[C@@H](C)CS(C)(=O)=O` [14-395] as the compound, how does the “logP (acid)” value read?
Answer: logP (acid) 3.13

Question: With `CSC[C@H](C)NC(=O)c1c(C(=O)Nc2ccc(Cn3nc(C(F)(F)C(F)(F)F)nc3C(F)(F)F)nc2C)cccc1S(C)(=O)=O` [14-393] as the compound, how does the “logP (acid)” value read?
Answer: logP (acid) 3.34

Question: Which “logP (acid)” value does the source give for `CSC[C@H](C)NC(=O)c1c(Cl)cccc1C(=O)Nc1ccc(Cn2cc(C(=O)N(C)C)c(C(F)(F)F)n2)cc1C` [13-207] here?
Answer: logP (acid) 2.56

Question: For `CSC[C@H](C)NC(=O)c1c(C(=O)Nc2ccc(Cn3cc(C(F)(F)C(F)(F)F)c(C(F)(F)C(F)(F)F)n3)nc2C)cccc1S(C)(=O)=O` [13-290], which “logP (acid)” value is on record?
Answer: logP (acid) 3.80

Same assay, conditions: reverse phase (C18) chromatography, pH2.3, 0.1% phosphoric acid aqueous solution / acetonitrile, linear gradient 10-95% acetonitrile

Question: Which “logP (acid)” value does the source give for `Cc1nc(Cn2nc(C(F)(F)F)cc2C(F)(F)F)ccc1NC(=O)c1ccc(F)c(Br)c1C(=O)N[C@@H](C)CS(C)(=O)=O` [9-21] here?
Answer: logP (acid) 3.27

Question: With `Cc1nc(Cn2nc(C(F)(F)F)cc2C(F)(F)F)ccc1NC(=O)c1ccc(F)c(Br)c1C(=O)N[C@@H](C)C[S+](C)[O-]` (stereo partly shown) [9-11] as the compound, how does the “logP (acid)” value read?
Answer: logP (acid) 2.51

Question: With `Cc1cc(Cn2nc(C(F)(F)C(F)(F)F)nc2C(F)(F)F)ccc1NC(=O)c1ccc(C(F)(F)F)c(Cl)c1C(=O)N[C@@H](C)CS(C)(=O)=O` [9-25] as the compound, how does the “logP (acid)” value read?
Answer: logP (acid) 3.70

Reference: patent US20110184188A1, “Insecticidal Benzenedicarboxamide Derivative” (priority 2008, published 2011)
